# ChEMBL document CHEMBL5252541, “Repurposing antipsychotic drugs into antifungal agents: Synergistic combinations of azoles and bromperidol derivatives in the treatment of various fungal infections” (Eur J Med Chem, 2017)
# Key:
# Candida albicans [1] = assay: Additive antifungal activity against Candida albicans ATCC 64124 assessed as fractional inhibitory concentration index measured for 72 hrs in presence of fluconazole; type: functional
# Candida albicans [2] = assay: Antifungal activity against Candida albicans ATCC MYA-1003 measured after 48 hrs by broth microdilution analysis; type: functional
# Candida albicans [3] = assay: Synergistic antifungal activity against Candida albicans ATCC 10231 assessed as compound MIC measured after 48 hrs in presence of itraconazole by checkboard based microplate reader analysis; type: functional
# Candida albicans [4] = assay: Synergistic antifungal activity against Candida albicans ATCC 10231 assessed as compound MIC measured after 48 hrs in presence of voriconazole by checkboard based microplate reader analysis; type: functional
# Candida albicans [5] = assay: Synergistic antifungal activity against Candida albicans ATCC 64124 assessed as compound MIC measured after 48 hrs in presence of ketoconazole by checkboard based microplate reader analysis; type: functional
# Candida albicans [6] = assay: Synergistic antifungal activity against Candida albicans ATCC 10231 assessed as compound MIC measured after 48 hrs in presence of ketoconazole by checkboard based microplate reader analysis; type: functional
# Candida albicans [7] = assay: Additive antifungal activity against Candida albicans ATCC 64124 assessed as fractional inhibitory concentration index measured for 72 hrs in presence of voriconazole; type: functional
# Candida albicans [8] = assay: Additive antifungal activity against Candida albicans ATCC 90819 assessed as fractional inhibitory concentration index measured for 72 hrs in presence of posaconazole; type: functional
# Candida albicans [9] = assay: Synergistic antifungal activity against Candida albicans ATCC 64124 assessed as compound MIC measured after 48 hrs in presence of itraconazole by checkboard based microplate reader analysis; type: functional
# Candida albicans [10] = assay: Synergistic antifungal activity against Candida albicans ATCC 64124 assessed as compound MIC measured after 48 hrs in presence of fluconazole by checkboard based microplate reader analysis; type: functional
# Candida albicans [11] = assay: Antifungal activity against Candida albicans ATCC MYA-2876 measured after 48 hrs by broth microdilution analysis; type: functional
# Candida albicans [12] = assay: Additive antifungal activity against Candida albicans ATCC MYA-2876 assessed as fractional inhibitory concentration index measured for 72 hrs in presence of voriconazole; type: functional
# Candida albicans [13] = assay: Synergistic antifungal activity against Candida albicans ATCC 64124 assessed as compound MIC measured after 48 hrs in presence of posaconazole by checkboard based microplate reader analysis; type: functional
# Candida albicans [14] = assay: Synergistic antifungal activity against Candida albicans ATCC 10231 assessed as compound MIC measured after 48 hrs in presence of fluconazole by checkboard based microplate reader analysis; type: functional
# Candida albicans [15] = assay: Additive antifungal activity against Candida albicans ATCC MYA-2310 assessed as fractional inhibitory concentration index measured for 72 hrs in presence of posaconazole; type: functional
# Candida albicans [16] = assay: Synergistic antifungal activity against Candida albicans ATCC 10231 assessed as compound MIC measured after 48 hrs in presence of posaconazole by checkboard based microplate reader analysis; type: functional
# Candida albicans [17] = assay: Antifungal activity against Candida albicans ATCC MYA-1237 measured after 48 hrs by broth microdilution analysis; type: functional
# Candida albicans [18] = assay: Antifungal activity against Candida albicans ATCC 64124 measured after 48 hrs by broth microdilution analysis; type: functional
# Aspergillus terreus [19] = assay: Additive antifungal activity against Aspergillus terreus ATCC MYA-3633 assessed as fractional inhibitory concentration index measured for 72 hrs in presence of voriconazole; type: functional
# Nakaseomyces glabratus [20] = assay: Synergistic antifungal activity against Candida glabrata ATCC 2001 assessed as fractional inhibitory concentration index measured for 72 hrs in presence of posaconazole; type: functional
# Candida albicans [21] = assay: Additive antifungal activity against Candida albicans ATCC 10231 assessed as fractional inhibitory concentration index measured for 72 hrs in presence of itraconazole; type: functional
# Candida albicans [22] = assay: Additive antifungal activity against Candida albicans ATCC 64124 assessed as fractional inhibitory concentration index measured for 72 hrs in presence of itraconazole; type: functional
# Candida albicans [23] = assay: Antifungal activity against Candida albicans ATCC 10231 measured after 48 hrs by broth microdilution analysis; type: functional
# Candida albicans [24] = assay: Additive antifungal activity against Candida albicans ATCC MYA-2876 assessed as fractional inhibitory concentration index measured for 72 hrs in presence of posaconazole; type: functional
# Candida albicans [25] = assay: Partial synergistic antifungal activity against Candida albicans ATCC 10231 assessed as fractional inhibitory concentration index measured for 72 hrs in presence of voriconazole; type: functional
# Nakaseomyces glabratus [26] = assay: Antifungal activity against Candida glabrata ATCC 2001 measured after 48 hrs by broth microdilution analysis; type: functional
# Candida albicans [27] = assay: Additive antifungal activity against Candida albicans ATCC 10231 assessed as fractional inhibitory concentration index measured for 72 hrs in presence of fluconazole; type: functional
# Candida albicans [28] = assay: Additive antifungal activity against Candida albicans ATCC 90819 assessed as fractional inhibitory concentration index measured for 72 hrs in presence of voriconazole; type: functional
# Candida albicans [29] = assay: Antifungal activity against Candida albicans ATCC 90819 measured after 48 hrs by broth microdilution analysis; type: functional
# Nakaseomyces glabratus [30] = assay: Additive antifungal activity against Candida glabrata ATCC 2001 assessed as fractional inhibitory concentration index measured for 72 hrs in presence of posaconazole; type: functional
# Candida albicans [31] = assay: Synergistic antifungal activity against Candida albicans ATCC 64124 assessed as fractional inhibitory concentration index measured for 72 hrs in presence of posaconazole; type: functional
# Candida albicans [32] = assay: Additive antifungal activity against Candida albicans ATCC MYA-2310 assessed as fractional inhibitory concentration index measured for 72 hrs in presence of voriconazole; type: functional
# Candida albicans [33] = assay: Additive antifungal activity against Candida albicans MYA-1003 assessed as fractional inhibitory concentration index measured for 72 hrs in presence of voriconazole
# Candida albicans [34] = assay: Additive antifungal activity against Candida albicans ATCC 64124 assessed as fractional inhibitory concentration index measured for 72 hrs in presence of ketoconazole; type: functional
# Candida albicans [35] = assay: Synergistic antifungal activity against Candida albicans ATCC 64124 assessed as compound MIC measured after 48 hrs in presence of voriconazole by checkboard based microplate reader analysis; type: functional
# Candida albicans [36] = assay: Potency index, ratio of fluconazole MIC to test compound MIC for antifungal activity against Candida albicans ATCC 10231 measured after 48 hrs by broth microdilution analysis; type: functional
# Candida albicans [37] = assay: Antifungal activity against Candida albicans ATCC MYA-2310 measured after 48 hrs by broth microdilution analysis; type: functional
# Candida albicans [38] = assay: Additive antifungal activity against Candida albicans ATCC MYA-1237 assessed as fractional inhibitory concentration index measured for 72 hrs in presence of posaconazole; type: functional
# Nakaseomyces glabratus [39] = assay: Additive antifungal activity against Candida glabrata ATCC 2001 assessed as fractional inhibitory concentration index measured for 72 hrs in presence of voriconazole; type: functional
# Aspergillus terreus [40] = assay: Antifungal activity against Aspergillus terreus ATCC MYA-3633 measured after 48 hrs by broth microdilution analysis; type: functional
# Candida albicans [41] = assay: Additive antifungal activity against Candida albicans ATCC MYA-1237 assessed as fractional inhibitory concentration index measured for 72 hrs in presence of voriconazole; type: functional
# Candida albicans [42] = assay: Additive antifungal activity against Candida albicans ATCC 10231 assessed as fractional inhibitory concentration index measured for 72 hrs in presence of ketoconazole; type: functional
# Candida albicans [43] = assay: Partial synergistic antifungal activity against Candida albicans ATCC 90819 assessed as fractional inhibitory concentration index measured for 72 hrs in presence of posaconazole; type: functional
# Candida albicans [44] = assay: Synergistic antifungal activity against Candida albicans ATCC 90819 assessed as fractional inhibitory concentration index measured for 72 hrs in presence of voriconazole; type: functional
# Candida albicans [45] = assay: Partial synergistic antifungal activity against Candida albicans ATCC MYA-1003 assessed as fractional inhibitory concentration index measured for 72 hrs in presence of posaconazole; type: functional
# Aspergillus terreus [46] = assay: Additive antifungal activity against Aspergillus terreus ATCC MYA-3633 assessed as fractional inhibitory concentration index measured for 72 hrs in presence of posaconazole; type: functional
# Candida albicans [47] = assay: Partial synergistic antifungal activity against Candida albicans ATCC 64124 assessed as fractional inhibitory concentration index measured for 72 hrs in presence of voriconazole; type: functional
# Candida albicans [48] = assay: Partial synergistic antifungal activity against Candida albicans ATCC MYA-1003 assessed as fractional inhibitory concentration index measured for 72 hrs in presence of voriconazole; type: functional
# Candida albicans [49] = assay: Partial synergistic antifungal activity against Candida albicans ATCC 10231 assessed as fractional inhibitory concentration index measured for 72 hrs in presence of ketoconazole; type: functional
# Candida albicans [50] = assay: Partial synergistic antifungal activity against Candida albicans ATCC 64124 assessed as fractional inhibitory concentration index measured for 72 hrs in presence of ketoconazole; type: functional
# Candida albicans [51] = assay: Partial synergistic antifungal activity against Candida albicans MYA-2876 assessed as fractional inhibitory concentration index measured for 72 hrs in presence of posaconazole; type: functional
smiles,measurement,setting,value
COc1ccc(C(=O)CCCN2CCC(O)(c3ccc(Br)cc3)CC2)cc1,fractional inhibitory concentration index (FICI),Candida albicans [1],2
same,MIC,Candida albicans [2],> 128 µg/mL
same,MIC,Candida albicans [3],> 128 µg/mL
same,MIC,Candida albicans [4],32 µg/mL
same,MIC,Candida albicans [5],64 µg/mL
same,MIC,Candida albicans [6],> 128 µg/mL
same,fractional inhibitory concentration index (FICI),Candida albicans [7],1.25
same,fractional inhibitory concentration index (FICI),Candida albicans [8],2
same,MIC,Candida albicans [9],> 128 µg/mL
same,MIC,Candida albicans [10],> 128 µg/mL
same,MIC,Candida albicans [11],> 128 µg/mL
same,fractional inhibitory concentration index (FICI),Candida albicans [12],2
same,MIC,Candida albicans [13],8 µg/mL
same,MIC,Candida albicans [14],> 128 µg/mL
same,fractional inhibitory concentration index (FICI),Candida albicans [15],2
same,MIC,Candida albicans [16],> 128 µg/mL
same,MIC,Candida albicans [17],> 128 µg/mL
same,MIC,Candida albicans [18],> 128 µg/mL
same,fractional inhibitory concentration index (FICI),Aspergillus terreus [19],2
same,fractional inhibitory concentration index (FICI),Nakaseomyces glabratus [20],0.51
same,fractional inhibitory concentration index (FICI),Candida albicans [21],2
same,fractional inhibitory concentration index (FICI),Candida albicans [22],2
same,MIC,Candida albicans [23],> 128 µg/mL
same,fractional inhibitory concentration index (FICI),Candida albicans [24],2
same,fractional inhibitory concentration index (FICI),Candida albicans [25],0.75
same,MIC,Nakaseomyces glabratus [26],> 128 µg/mL
same,fractional inhibitory concentration index (FICI),Candida albicans [27],2
same,fractional inhibitory concentration index (FICI),Candida albicans [28],2
same,MIC,Candida albicans [29],> 128 µg/mL
same,fractional inhibitory concentration index (FICI),Nakaseomyces glabratus [30],0.5
same,fractional inhibitory concentration index (FICI),Candida albicans [31],0.13
same,fractional inhibitory concentration index (FICI),Candida albicans [32],2
same,fractional inhibitory concentration index (FICI),Candida albicans [33],2
same,fractional inhibitory concentration index (FICI),Candida albicans [34],1
same,MIC,Candida albicans [35],128 µg/mL
same,Ratio,Candida albicans [36],16
same,MIC,Candida albicans [37],> 128 µg/mL
same,fractional inhibitory concentration index (FICI),Candida albicans [38],2
same,fractional inhibitory concentration index (FICI),Nakaseomyces glabratus [39],2
same,MIC,Aspergillus terreus [40],> 128 µg/mL
same,fractional inhibitory concentration index (FICI),Candida albicans [41],2
same,fractional inhibitory concentration index (FICI),Candida albicans [42],2
O=C(CCCN1CCC(O)(c2ccc(Br)cc2)CC1)c1ccc(Cl)cc1,fractional inhibitory concentration index (FICI),Candida albicans [1],2
same,MIC,Candida albicans [2],> 32 µg/mL
same,MIC,Candida albicans [3],> 32 µg/mL
same,fractional inhibitory concentration index (FICI),Candida albicans [43],0.52
same,MIC,Candida albicans [4],16 µg/mL
same,fractional inhibitory concentration index (FICI),Candida albicans [44],0.31
same,MIC,Candida albicans [5],0.5 µg/mL
same,MIC,Candida albicans [6],16 µg/mL
same,MIC,Candida albicans [9],> 32 µg/mL
same,MIC,Candida albicans [10],> 32 µg/mL
same,MIC,Candida albicans [11],> 32 µg/mL
same,fractional inhibitory concentration index (FICI),Candida albicans [45],0.53
same,fractional inhibitory concentration index (FICI),Candida albicans [12],1
same,fractional inhibitory concentration index (FICI),Aspergillus terreus [46],2
same,MIC,Candida albicans [13],4 µg/mL
same,MIC,Candida albicans [14],16 µg/mL
same,MIC,Candida albicans [16],4 µg/mL
same,MIC,Candida albicans [17],> 32 µg/mL
same,fractional inhibitory concentration index (FICI),Candida albicans [47],0.63
same,MIC,Candida albicans [18],> 32 µg/mL
same,fractional inhibitory concentration index (FICI),Aspergillus terreus [19],2
same,fractional inhibitory concentration index (FICI),Candida albicans [21],2
same,fractional inhibitory concentration index (FICI),Candida albicans [48],0.75
same,fractional inhibitory concentration index (FICI),Candida albicans [22],2
same,MIC,Candida albicans [23],> 32 µg/mL
same,fractional inhibitory concentration index (FICI),Candida albicans [25],0.75
same,MIC,Nakaseomyces glabratus [26],> 32 µg/mL
same,fractional inhibitory concentration index (FICI),Candida albicans [49],0.75
same,fractional inhibitory concentration index (FICI),Candida albicans [27],1.5
same,MIC,Candida albicans [29],> 32 µg/mL
same,fractional inhibitory concentration index (FICI),Nakaseomyces glabratus [30],2
same,fractional inhibitory concentration index (FICI),Candida albicans [31],0.19
same,fractional inhibitory concentration index (FICI),Candida albicans [32],1
same,fractional inhibitory concentration index (FICI),Candida albicans [50],0.52
same,fractional inhibitory concentration index (FICI),Candida albicans [33],0.75
same,MIC,Candida albicans [35],16 µg/mL
same,MIC,Candida albicans [37],> 32 µg/mL
same,fractional inhibitory concentration index (FICI),Candida albicans [51],0.52
same,fractional inhibitory concentration index (FICI),Candida albicans [38],1.02
same,fractional inhibitory concentration index (FICI),Nakaseomyces glabratus [39],2
same,MIC,Aspergillus terreus [40],> 32 µg/mL
same,fractional inhibitory concentration index (FICI),Candida albicans [41],1
